# The source made the active and inactive calls. The calls are words filed in the database; no cut-off is given here.
# Experiments:
# Focal adhesion kinase 1 = Focal adhesion kinase 1 (Homo sapiens, UniProt Q05397); experiment: Inhibition of Focal adhesion kinase (unknown origin) using Tyr 07 peptide substrate incubated for 60 mins at room temperature followed by 60 mins development reaction measured fluorescence by Z-LYTE assay
# MDA-MB-231 [1] = experiment: Antiproliferative activity against human MDA-MB-231 cells assessed as reduction in cell viability incubated for 120 hrs using ultra-low adherent 3D-spheroids by CellTiter-glo assay; type: functional, cell-based; settings: MDA-MB-231, 120 h
# MDA-MB-231 [2] = experiment: Antiproliferative activity against human MDA-MB-231 cells cultured as 3D-spheroids assessed as reduction in cell viability by Celltiter-Glo assay; type: functional, cell-based
# MDA-MB-231 [3] = experiment: Antiproliferative activity against human MDA-MB-231 cells cultured as 2D-adherent monolayer assessed as reduction in cell viability by Celltiter-Glo assay; type: functional, cell-based
# [4] = target: Glycogen synthase kinase-3 beta (Homo sapiens, UniProt P49841); experiment: Inhibition of human GSK3beta
# [5] = target: Protein-tyrosine kinase 2-beta (Homo sapiens, UniProt Q14289); experiment: Inhibition of Pyk2 (unknown origin)
# CDK7/Cyclin H/MNAT1 = CDK7/Cyclin H/MNAT1 (Homo sapiens, UniProt P50613); experiment: Inhibition of human CDK7/cyclinH/MAT1; type: protein-complex assay
# [6] = target: Cyclin-dependent kinase 1/cyclin B1 (Homo sapiens, UniProt P06493); experiment: Inhibition of human CDK1/cyclinB; type: protein-complex assay
# HT-29 [7] = experiment: Antiproliferative activity against human HT-29 cells cultured as 2D-adherent monolayer assessed as reduction in cell viability by Celltiter-Glo assay; type: functional, cell-based
# HT-29 [8] = experiment: Antiproliferative activity against human HT-29 cells cultured as 3D-spheroids assessed as reduction in cell viability by Celltiter-Glo assay; type: functional, cell-based
# Mus musculus = species: Mus musculus; experiment: Antiproliferative activity against CDH1-/-RHOAY42C/+ mouse diffuse gastric cancer organoid model assessed as reduction in cell viability at 5 uM; type: functional, tissue-based; settings: Stomach
# [9] = target: Focal adhesion kinase 1 (Mus musculus) (UniProt P34152); experiment: Inhibition of FAK in CDH1-/- RHOAY42C/+ mouse gastric cancer organoid model assessed as pFAY Y397 phosphorylation at 5 uM incubated for 24 hrs by immunoblot analysis; type: tissue-based; settings: Stomach
# [10] = target: Focal adhesion kinase 1 (Mus musculus) (UniProt P34152); experiment: Inhibition of FAK in CDH1-/- RHOAY42C/+ mouse gastric cancer organoid model assessed as total YAP/TAZ level at 5 uM incubated for 24 hrs by immunoblot analysis; type: tissue-based; settings: Stomach
# [11] = target: Focal adhesion kinase 1 (Mus musculus) (UniProt P34152); experiment: Inhibition of FAK in CDH1-/- RHOAY42C/+ mouse gastric cancer organoid model assessed as nonphosphorylated YAP at 0.1 to 20 uM incubated for 24 hrs by immunoblot analysis; type: tissue-based; settings: Stomach, dose 0.1-20 µM
# [12] = target: Focal adhesion kinase 1 (Mus musculus) (UniProt P34152); experiment: Inhibition of FAK in CDH1-/- RHOAY42C/+ mouse gastric cancer organoid model assessed as […] phosphorylation at 5 uM incubated for 24 hrs by immunoblot analysis; type: tissue-based; settings: Stomach
# [13] = Efflux ratio of apparent permeability in human Caco-2 cells; type: ADME, cell-based
# [14] = Apparent permeability of the compound across apical to basolateral side in human Caco-2 cells; type: ADME, cell-based
# [15] = target: Focal adhesion kinase 1 (Mus musculus) (UniProt P34152); experiment: Inhibition of FAK in CDH1-/- RHOAY42C/+ mouse gastric cancer organoid model assessed as […] phosphorylation at 0.1 to 20 uM incubated for 24 hrs by immunoblot analysis; type: tissue-based; settings: Stomach, dose 0.1-20 µM
# Homo sapiens = species: Homo sapiens; experiment: Antiproliferative activity against human gastric organoid assessed as reduction in cell viability by Celltiter-Glo assay; type: functional, tissue-based; settings: Stomach
# [16] = target: Focal adhesion kinase 1 (Mus musculus) (UniProt P34152); experiment: Inhibition of FAK in mouse gastric organoid by Immunoblotting
# MDA-MB-231 [17] = experiment: Inhibition of cell migration in human MDA-MB-231 cells incubated for 24 hrs by microscopy method; type: functional, cell-based
# [18] = target: Serine/threonine-protein kinase PLK1 (Homo sapiens) (UniProt P53350); experiment: Inhibition of PLK1 (unknown origin) assessed as cell cycle disruption
# [19] = Clearance in C57BI/6 male mouse at 2 mg/kg, iv; type: ADME, organism-based; settings: C57BL/6, mouse, in vivo
# [20] = Half life in C57BI/6 male mouse at 2 mg/kg, iv; type: ADME, organism-based; settings: C57BL/6, mouse, in vivo
# [21] = Volume of distribution at steady-state in C57BI/6 male mouse at 2 mg/kg, iv; type: ADME, organism-based; settings: C57BL/6, mouse, in vivo, read-out: Vdss
# [22] = Cmax in C57BI/6 male mouse at 10 mg/kg, po; type: ADME, organism-based; set-up: route oral, dose 10 mg/kg; settings: C57BL/6, mouse, in vivo
# [23] = Tmax in C57BI/6 male mouse at 10 mg/kg, po; type: ADME, organism-based; settings: C57BL/6, mouse, in vivo
# [24] = AUC(infinity) in C57BI/6 male mouse at 10 mg/kg, po; type: ADME, organism-based; set-up: route oral, time infinity, dose 10 mg/kg; settings: C57BL/6, mouse, in vivo
# [25] = Oral bioavailability in C57BI/6 male mouse at 10 mg/kg; type: ADME, organism-based; settings: C57BL/6, mouse, in vivo
# Focal adhesion kinase 1, sequence (Q05397 whole entry): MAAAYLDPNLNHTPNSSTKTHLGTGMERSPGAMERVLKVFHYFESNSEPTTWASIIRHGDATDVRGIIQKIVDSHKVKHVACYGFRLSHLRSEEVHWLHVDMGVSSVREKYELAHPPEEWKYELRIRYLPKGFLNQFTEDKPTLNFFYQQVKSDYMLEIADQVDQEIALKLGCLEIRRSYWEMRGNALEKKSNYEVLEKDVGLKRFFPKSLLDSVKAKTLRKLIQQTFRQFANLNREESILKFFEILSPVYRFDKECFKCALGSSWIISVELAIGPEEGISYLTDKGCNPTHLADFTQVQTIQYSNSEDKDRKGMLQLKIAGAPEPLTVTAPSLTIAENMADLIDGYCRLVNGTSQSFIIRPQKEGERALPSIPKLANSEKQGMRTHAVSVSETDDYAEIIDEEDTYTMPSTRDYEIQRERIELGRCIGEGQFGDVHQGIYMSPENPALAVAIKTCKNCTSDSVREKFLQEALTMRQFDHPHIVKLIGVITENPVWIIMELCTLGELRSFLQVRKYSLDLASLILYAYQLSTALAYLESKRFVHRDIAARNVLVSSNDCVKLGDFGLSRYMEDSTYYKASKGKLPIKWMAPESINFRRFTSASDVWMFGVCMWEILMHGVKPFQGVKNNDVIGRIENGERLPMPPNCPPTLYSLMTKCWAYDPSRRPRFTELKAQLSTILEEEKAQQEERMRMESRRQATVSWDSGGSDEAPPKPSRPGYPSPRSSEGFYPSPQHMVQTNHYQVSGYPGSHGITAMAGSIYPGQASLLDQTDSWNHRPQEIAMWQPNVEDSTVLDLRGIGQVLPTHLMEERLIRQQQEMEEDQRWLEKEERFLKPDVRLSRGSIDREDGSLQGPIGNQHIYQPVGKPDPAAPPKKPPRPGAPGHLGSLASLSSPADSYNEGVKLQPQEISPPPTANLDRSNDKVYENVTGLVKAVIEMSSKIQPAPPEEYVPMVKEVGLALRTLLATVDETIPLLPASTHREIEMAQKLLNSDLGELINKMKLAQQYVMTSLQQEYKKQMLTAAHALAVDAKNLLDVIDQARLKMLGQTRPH
# Focal adhesion kinase 1 (Mus musculus), sequence (P34152 whole entry): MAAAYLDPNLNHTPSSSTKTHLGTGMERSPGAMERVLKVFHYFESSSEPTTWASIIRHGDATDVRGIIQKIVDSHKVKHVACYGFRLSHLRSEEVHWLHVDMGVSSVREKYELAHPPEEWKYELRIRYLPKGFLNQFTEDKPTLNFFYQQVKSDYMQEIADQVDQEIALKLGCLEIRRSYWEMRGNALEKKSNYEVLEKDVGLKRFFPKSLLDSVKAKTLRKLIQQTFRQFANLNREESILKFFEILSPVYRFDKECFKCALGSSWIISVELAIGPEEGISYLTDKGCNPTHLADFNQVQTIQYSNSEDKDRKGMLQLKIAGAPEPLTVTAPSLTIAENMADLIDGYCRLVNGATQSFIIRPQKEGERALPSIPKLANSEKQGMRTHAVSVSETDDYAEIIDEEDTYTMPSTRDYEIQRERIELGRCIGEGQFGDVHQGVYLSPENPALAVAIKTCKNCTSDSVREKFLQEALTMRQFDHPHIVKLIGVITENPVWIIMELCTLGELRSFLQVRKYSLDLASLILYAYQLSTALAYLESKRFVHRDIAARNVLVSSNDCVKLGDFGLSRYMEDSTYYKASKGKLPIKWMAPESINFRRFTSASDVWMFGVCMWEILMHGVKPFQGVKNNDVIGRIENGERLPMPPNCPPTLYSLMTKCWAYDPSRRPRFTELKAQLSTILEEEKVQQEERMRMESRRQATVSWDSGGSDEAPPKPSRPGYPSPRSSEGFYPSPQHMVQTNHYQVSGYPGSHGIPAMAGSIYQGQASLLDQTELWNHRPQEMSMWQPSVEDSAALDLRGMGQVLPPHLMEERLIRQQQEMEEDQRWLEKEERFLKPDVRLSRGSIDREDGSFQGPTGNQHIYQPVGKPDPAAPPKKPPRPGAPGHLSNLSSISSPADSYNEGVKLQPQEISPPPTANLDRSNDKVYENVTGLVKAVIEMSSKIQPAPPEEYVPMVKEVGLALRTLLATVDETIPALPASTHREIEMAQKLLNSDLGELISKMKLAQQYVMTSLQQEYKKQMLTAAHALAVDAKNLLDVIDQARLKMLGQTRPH
# Glycogen synthase kinase-3 beta, sequence (P49841 whole entry): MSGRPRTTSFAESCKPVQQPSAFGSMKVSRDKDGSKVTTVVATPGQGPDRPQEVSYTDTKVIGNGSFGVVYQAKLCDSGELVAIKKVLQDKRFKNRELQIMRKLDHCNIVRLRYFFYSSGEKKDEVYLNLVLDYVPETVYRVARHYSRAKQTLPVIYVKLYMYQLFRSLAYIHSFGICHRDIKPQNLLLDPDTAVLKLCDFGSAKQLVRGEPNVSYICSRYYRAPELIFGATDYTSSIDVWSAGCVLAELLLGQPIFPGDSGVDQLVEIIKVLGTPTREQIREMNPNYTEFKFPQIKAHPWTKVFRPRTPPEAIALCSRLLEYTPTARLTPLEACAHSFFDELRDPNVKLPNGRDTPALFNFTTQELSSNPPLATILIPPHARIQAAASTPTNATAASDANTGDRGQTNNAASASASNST
# CDK7/Cyclin H/MNAT1, sequence (P51946 whole entry): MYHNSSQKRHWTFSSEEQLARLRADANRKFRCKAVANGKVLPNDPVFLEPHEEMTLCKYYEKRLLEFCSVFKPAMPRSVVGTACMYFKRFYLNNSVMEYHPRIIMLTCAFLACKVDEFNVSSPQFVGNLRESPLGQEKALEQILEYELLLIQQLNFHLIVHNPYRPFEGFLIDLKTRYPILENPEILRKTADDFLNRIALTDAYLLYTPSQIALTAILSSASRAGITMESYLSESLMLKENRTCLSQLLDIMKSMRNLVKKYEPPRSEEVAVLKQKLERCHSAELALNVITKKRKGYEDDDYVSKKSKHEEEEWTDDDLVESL
# CDK7/Cyclin H/MNAT1, sequence (P50613 whole entry): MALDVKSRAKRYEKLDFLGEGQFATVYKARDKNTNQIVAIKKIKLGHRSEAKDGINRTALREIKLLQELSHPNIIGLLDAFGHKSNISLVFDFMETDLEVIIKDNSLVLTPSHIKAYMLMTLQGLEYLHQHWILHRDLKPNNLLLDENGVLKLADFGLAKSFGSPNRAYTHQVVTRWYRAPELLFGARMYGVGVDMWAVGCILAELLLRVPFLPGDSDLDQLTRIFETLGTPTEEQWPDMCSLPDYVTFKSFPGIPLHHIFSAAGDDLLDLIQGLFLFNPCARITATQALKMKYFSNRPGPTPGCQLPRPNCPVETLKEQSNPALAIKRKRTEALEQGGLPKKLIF
# CDK7/Cyclin H/MNAT1, sequence (P51948 whole entry, further chain): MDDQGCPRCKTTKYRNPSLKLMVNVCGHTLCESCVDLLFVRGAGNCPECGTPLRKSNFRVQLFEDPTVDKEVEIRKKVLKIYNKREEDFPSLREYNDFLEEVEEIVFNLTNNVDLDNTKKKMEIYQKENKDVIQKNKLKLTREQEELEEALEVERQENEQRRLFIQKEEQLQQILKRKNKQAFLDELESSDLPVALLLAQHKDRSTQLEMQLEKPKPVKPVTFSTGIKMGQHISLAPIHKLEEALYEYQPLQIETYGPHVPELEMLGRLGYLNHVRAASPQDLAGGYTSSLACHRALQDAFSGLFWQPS
# Serine/threonine-protein kinase PLK1 (Homo sapiens), sequence (P53350 whole entry): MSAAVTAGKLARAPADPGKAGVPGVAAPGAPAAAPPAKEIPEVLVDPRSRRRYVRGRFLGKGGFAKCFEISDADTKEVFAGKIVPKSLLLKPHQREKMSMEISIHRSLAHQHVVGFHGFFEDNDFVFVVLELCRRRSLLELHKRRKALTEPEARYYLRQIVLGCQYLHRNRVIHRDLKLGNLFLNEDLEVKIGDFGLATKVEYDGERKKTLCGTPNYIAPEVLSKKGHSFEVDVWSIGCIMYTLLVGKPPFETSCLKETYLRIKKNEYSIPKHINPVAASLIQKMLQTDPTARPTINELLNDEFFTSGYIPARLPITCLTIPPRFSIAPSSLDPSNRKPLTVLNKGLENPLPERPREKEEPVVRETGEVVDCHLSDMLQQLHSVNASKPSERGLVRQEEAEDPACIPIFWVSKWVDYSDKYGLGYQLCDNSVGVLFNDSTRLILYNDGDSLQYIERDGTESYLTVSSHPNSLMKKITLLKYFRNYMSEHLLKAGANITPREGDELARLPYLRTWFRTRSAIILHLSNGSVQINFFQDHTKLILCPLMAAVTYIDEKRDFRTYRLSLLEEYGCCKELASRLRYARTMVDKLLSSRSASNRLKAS
# Cyclin-dependent kinase 1/cyclin B1, sequence (P06493 whole entry): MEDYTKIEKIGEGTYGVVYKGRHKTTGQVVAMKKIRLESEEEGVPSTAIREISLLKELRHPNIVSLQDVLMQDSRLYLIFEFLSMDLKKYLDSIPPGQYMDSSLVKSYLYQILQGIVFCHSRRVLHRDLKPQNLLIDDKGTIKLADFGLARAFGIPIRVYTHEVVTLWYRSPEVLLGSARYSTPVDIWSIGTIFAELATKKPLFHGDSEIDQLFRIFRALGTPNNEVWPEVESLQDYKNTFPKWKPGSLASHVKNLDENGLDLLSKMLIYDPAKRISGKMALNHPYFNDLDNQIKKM
# Cyclin-dependent kinase 1/cyclin B1, sequence (P14635 whole entry, further chain): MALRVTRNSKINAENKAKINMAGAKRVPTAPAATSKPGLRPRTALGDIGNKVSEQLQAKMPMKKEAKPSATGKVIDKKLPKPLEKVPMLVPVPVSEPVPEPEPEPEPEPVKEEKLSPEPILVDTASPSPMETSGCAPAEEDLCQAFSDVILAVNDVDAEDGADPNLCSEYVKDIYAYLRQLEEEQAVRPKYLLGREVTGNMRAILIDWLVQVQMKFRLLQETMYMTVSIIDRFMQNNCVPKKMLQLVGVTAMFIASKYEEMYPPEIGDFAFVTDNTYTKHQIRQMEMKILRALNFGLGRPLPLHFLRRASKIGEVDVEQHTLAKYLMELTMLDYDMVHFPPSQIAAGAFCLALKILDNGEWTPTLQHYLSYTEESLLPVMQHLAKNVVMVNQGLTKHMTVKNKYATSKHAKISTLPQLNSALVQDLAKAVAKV
smiles,measurement,setting,value
COc1cc(N2CCN(C)CC2)ccc1Nc1ncc2c(n1)N(C)c1ccccc1C(=O)N2,IC50,Focal adhesion kinase 1,> 10 µM
COc1cc(N2CCN(C)CC2)ccc1Nc1ncc2c(n1)N(C)c1cn(C)nc1C(=O)N2,IC50,Focal adhesion kinase 1,0.123 µM
CNC(=O)c1ccc(Nc2ncc3c(n2)N(C)c2sc(C)nc2C(=O)N3C)c(OC)c1,IC50,MDA-MB-231 [1],> 10 µM
COc1cc(N2CCN(C)CC2)ccc1Nc1ncc2c(n1)N(C)c1sc(C)nc1C(=O)N2C,IC50,MDA-MB-231 [1],2.3 µM
same,Activity,MDA-MB-231 [2],Active
same,Activity,MDA-MB-231 [3],inactive
COc1cc(C2CCN(C)CC2)ccc1Nc1ncc2c(n1)N(C)c1sc(C)nc1C(=O)N2C,IC50,MDA-MB-231 [1],3.7 µM
same,Activity,MDA-MB-231 [2],Active
same,Activity,MDA-MB-231 [3],inactive
COc1cc(C(=O)N2CCC(N3CCN(C)CC3)CC2)ccc1Nc1ncc2c(n1)N(C)c1sc(C)nc1C(=O)N2C,IC50,MDA-MB-231 [1],> 10 µM
CS(=O)(=O)c1cccc(CNc2nc(Nc3ccc4c(c3)CCC(=O)N4)ncc2C(F)(F)F)c1,IC50,[4],< 1 µM
same,IC50,[5],< 1 µM
same,IC50,CDK7/Cyclin H/MNAT1,< 1 µM
same,IC50,[6],< 1 µM
same,Activity,HT-29 [7],Active
CNC(=O)c1ccccc1Nc1cc(Nc2ccc(N3CCOCC3)cc2OC)ncc1C(F)(F)F,Activity,HT-29 [8],Active
same,Activity,HT-29 [7],Active
COc1cc(N2CCC(N3CCN(C)CC3)CC2)ccc1Nc1ncc2c(n1)N(C)c1oc(C)nc1C(=O)N2C,IC50,MDA-MB-231 [1],> 10 µM
same,IC50,Focal adhesion kinase 1,0.525 µM
Cc1nc2c(s1)N(C)c1nc(Nc3ccc(N4CCN(C)CC4)cc3OCCO)ncc1N(C)C2=O,IC50,Focal adhesion kinase 1,0.0465 µM
CCN1c2nc(Nc3ccc(N4CCC(N5CCN(C)CC5)CC4)cc3OC)ncc2N(C)C(=O)c2nc(C)sc21,IC50,MDA-MB-231 [1],> 10 µM
COc1cc(N2CCNCC2)ccc1Nc1ncc2c(n1)N(C)c1sc(C)nc1C(=O)N2C,IC50,MDA-MB-231 [1],2.5 µM
same,Activity,MDA-MB-231 [2],Active
same,Activity,MDA-MB-231 [3],inactive
COc1cc(N2CCC(N3CCN(C)CC3)CC2)ccc1Nc1ncc2c(n1)N(C)c1sc(-c3ccccc3)nc1C(=O)N2C,IC50,Focal adhesion kinase 1,> 10 µM
CCOc1cc(N2CCN(C)CC2)ccc1Nc1ncc2c(n1)N(C)c1sc(C)nc1C(=O)N2C,IC50,MDA-MB-231 [1],6.1 µM
CNC(=O)c1ccc(Nc2ncc3c(n2)N(C)c2sc(C)nc2C(=O)N3C)cc1,IC50,MDA-MB-231 [1],5.9 µM
COc1cc(N2CCN(C)CC2)ccc1Nc1ncc2c(n1)N(C)c1ncsc1C(=O)N2,IC50,Focal adhesion kinase 1,> 10 µM
COc1cc2c(cc1Nc1ncc3c(n1)N(C)c1sc(C)nc1C(=O)N3C)CN(C)CC2,IC50,MDA-MB-231 [1],> 10 µM
CNC(=O)c1ccc(Nc2ncc(C(F)(F)F)c(NCc3nccnc3N(C)S(C)(=O)=O)n2)cc1,Activity,Mus musculus,Active
same,inhibition,[9],Active
same,Activity,HT-29 [7],Active
same,inhibition,[10],Active
same,inhibition,[11],Active
same,inhibition,[12],Active
CCN1C(=O)c2nc(C)sc2N(C)c2nc(Nc3ccc(N4CCC(N5CCN(C)CC5)CC4)cc3OC)ncc21,efflux ratio,[13],2.2
same,Papp A→B,[14],8.3 ×10⁻⁶ cm/s
same,IC50,MDA-MB-231 [1],0.93 µM
same,Activity,MDA-MB-231 [2],Active
same,Activity,MDA-MB-231 [3],inactive
COc1cc(N2CCN(S(C)(=O)=O)CC2)ccc1Nc1ncc2c(n1)N(C)c1sc(C)nc1C(=O)N2C,IC50,MDA-MB-231 [1],> 10 µM
COc1cc(N2CCN(C)CC2)c(C)cc1Nc1ncc2c(n1)N(C)c1sc(C)nc1C(=O)N2C,IC50,MDA-MB-231 [1],7.7 µM
COc1cc(N2CCC(N3CCN(C)CC3)CC2)ccc1Nc1ncc2c(n1)N(C)c1sc(C)nc1C(=O)N2C,inhibition,[15],Active
same,Activity,Homo sapiens,Dose-dependent effect
same,inhibition,[16],Active
same,inhibition,MDA-MB-231 [17],Active
same,Papp A→B,[14],5.8 ×10⁻⁶ cm/s
same,inhibition,[18],inactive
same,clearance,[19],18.5 mL/min/kg
same,half-life,[20],5.29 h
same,Vd,[21],4.07 L/kg
same,Cmax,[22],420 nM
same,Tmax,[23],4 h
same,AUC(0-inf),[24],1820 ng·h/mL
same,bioavailability,[25],18.3%
same,Activity,MDA-MB-231 [2],Active
same,Activity,HT-29 [8],inactive
same,Activity,MDA-MB-231 [3],inactive
same,Activity,HT-29 [7],inactive
Cc1nc2c(s1)N(C)c1nc(Nc3ccc4c(c3)CCC(=O)N4)ncc1N(C)C2=O,IC50,MDA-MB-231 [1],> 10 µM
COc1cc(N2CCN(CCO)CC2)ccc1Nc1ncc2c(n1)N(C)c1sc(C)nc1C(=O)N2C,IC50,MDA-MB-231 [1],> 10 µM
